Where a name gives a salt, the structure may show the parent alone.
Tested on: IL-4, IL-13, STAT-6, IFNγ, IL-17a, IL-10 mRNA in prostates of CP1 infected mice
Experiment: qPCR for cytokine transcripts in prostates
Type: in vivo, C57BL/6 mice
Details: late, day 35 post CP1 infection; single drug or combination; CrS 0.5 mg/kg, CeHCl 2.5 mg/kg i.p. daily 10 days
Description: The prostates were harvested from mice after euthanizing as described previously (32). Depending on the experimental design, each prostate sample (separated by lobes) were either fixed in 10% formalin or frozen at −80° C. in TRIzol™ reagent (Life Technologies Corporation, Grand Island, NY, USA), or frozen at −80° C. in 1×RIPA (Santa Cruz Biotechnology, Dallas, TX, USA) containing complete-EDTA protease inhibitor cocktail and phosSTOP phosphatase inhibitor (Millipore-Sigma, Burlington, MA, USA), or processed for tissue digestion for flow cytometry. Formalin samples were further processed and embedded in paraffin. The formalin-fixed paraffin-embedded (FFPE) samples were then sectioned (5 μm sections) and mounted on glass slides for staining. […] Following voiding behavior testing on days 14 or 35 [“early treatment” or “late treatment” groups respectively], mice were euthanized and tissues were prepared as described above. Total RNA was isolated using TRIzol™ reagent (Life Technologies Corporation, Grand Island, NY, USA), and cDNA synthesis, starting with 1 μg of total RNA, was performed with random hexamers using High-Capacity cDNA Reverse Transcription Kit (Life Technologies Corporation, Grand Island, NY, USA) per the manufacturer's instructions. Primers for quantitative PCR (qPCR) were created for the RNA of interest using the NIH online primer blast tool. Reverse Transcription-Quantitative Polymerase Chain Reaction (RT-qPCR) reactions were performed using SsoAdvanced™ universal SYBR® green (Bio-Rad, Hercules, CA, USA) and run on the CFX Connect (Bio-Rad, Hercules, CA, USA) platform. A full table of primer sequences is included in Table 1. The data were analyzed by the 2^−ΔΔCT method (38), and normalized to GAPDH as the housekeeping gene. The data are represented as fold change normalized to the average expression of the gene of interest in their respective control group.

| SMILES | IL-4 gene expression in prostates of CP1-infected mice (FIG. 12) | IL-13 gene expression in prostates of CP1-infected mice (FIG. 12) |
| --- | --- | --- |
| O=C(O)COCCN1CCN(C(c2ccccc2)c2ccc(Cl)cc2)CC1 (stereo not shown) [CeHCl, cetirizine di-hydrochloride] | reduced the gene expression levels of IL-4 and IL-13 to a modest but non-significant levels | reduced the gene expression levels of IL-4 and IL-13 to a modest but non-significant levels |
| O=C([O-])c1cc(=O)c2c(OCC(O)COc3cccc4oc(C(=O)[O-])cc(=O)c34)cccc2o1.[Na+].[Na+] [CrS, cromolyn sodium] | reduced the gene expression levels of IL-4 and IL-13 to negligible levels | reduced the gene expression levels of IL-4 and IL-13 to negligible levels |

— patent US11857531B2, “Combination mast cell inhibition for treatment of BPH/LUTS” (Northwestern University, priority 2020, dated 2024)
